In patent publication US20080275084A1, “Piperidines for the Treatment of Chemokine Mediated Diseases” (ASTRAZENECA AB, priority 2005, published 2008):
Structures can show the parent of a compound that is named as a salt.

Legend:
human H1 receptor = target: T1, human H1 receptor (Homo sapiens, UniProt P35367); assay: Histamine H1 receptor binding, competition displacement of [3H]-pyrilamine; settings: displacement of 1 nM [3H]-pyrilamine, membranes of recombinant CHO-K1 cells expressing human H1 receptor, 1 hour at room temperature; for Ki: read-out: H1 pKi (converted)
T1 construct: purchased Euroscreen SA, Brussels, Belgium ES-390-M; host or cells: CHO-K1
T1 sequence (P35367 whole entry): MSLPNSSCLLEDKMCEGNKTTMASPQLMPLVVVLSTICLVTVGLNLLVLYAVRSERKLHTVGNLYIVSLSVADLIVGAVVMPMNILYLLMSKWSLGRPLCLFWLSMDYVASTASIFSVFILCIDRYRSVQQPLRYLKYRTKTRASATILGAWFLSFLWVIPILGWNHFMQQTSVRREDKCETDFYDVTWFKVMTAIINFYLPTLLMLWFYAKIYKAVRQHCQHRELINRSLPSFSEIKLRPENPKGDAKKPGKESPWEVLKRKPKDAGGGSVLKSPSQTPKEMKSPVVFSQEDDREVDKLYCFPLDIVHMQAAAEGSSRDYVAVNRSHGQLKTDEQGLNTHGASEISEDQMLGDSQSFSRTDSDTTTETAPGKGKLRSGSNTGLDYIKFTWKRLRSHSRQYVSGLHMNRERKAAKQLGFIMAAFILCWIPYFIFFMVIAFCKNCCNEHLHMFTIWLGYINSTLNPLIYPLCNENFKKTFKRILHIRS
Experimental: Histamine H1 receptor binding activity of compounds of the invention was assessed by competition displacement of 1 nM [3H]-pyrilamine (Amersham, Bucks, Product code TRK 608, specific activity 30 Ci/mmol) to 2 μg membranes prepared from recombinant CHO-K1 cells expressing the human H1 receptor (Euroscreen SA, Brussels, Belgium, product code ES-390-M) in assay buffer (50 mM Tris pH 7.4 containing 2 mM MgCl2, 250 mM sucrose and 100 mM NaCl) for 1 hour at room temperature.
The following compounds of the invention gave inhibition of [3H]pyrilamine binding: […]

recombinant human CCR3 = target: T2, recombinant human CCR3 (Homo sapiens, UniProt P51677); assay: Compound affinity at human recombinant CCR3 receptors, radioligand competition on CHO-K1 cell membranes; format: binding; settings: competition with 2 nM [3H]-4-(2,4-dichloro-3-methylphenoxy)-1'-[4-(methylsulfonyl)benzoyl]-1,4'-bipiperidine, 2 h at 37° C., mean pKi by Cheng-Prussof correction of pIC50, minimum 2 experiments
T2 construct: expressed in transfected cells; host or cells: CHO-K1
T2 sequence (P51677 1-355): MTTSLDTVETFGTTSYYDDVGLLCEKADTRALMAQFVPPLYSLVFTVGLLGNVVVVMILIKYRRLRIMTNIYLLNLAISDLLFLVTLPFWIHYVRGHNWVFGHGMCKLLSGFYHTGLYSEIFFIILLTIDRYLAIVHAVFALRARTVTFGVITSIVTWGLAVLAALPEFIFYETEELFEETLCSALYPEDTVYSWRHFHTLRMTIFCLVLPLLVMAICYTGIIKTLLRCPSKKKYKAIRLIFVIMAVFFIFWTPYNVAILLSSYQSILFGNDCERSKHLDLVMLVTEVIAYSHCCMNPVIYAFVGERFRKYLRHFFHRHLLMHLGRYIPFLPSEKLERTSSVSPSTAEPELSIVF
Experimental: Determination of Compound Affinity at Human Recombinant CCR3 Receptors Assessed by Competition of [^3H]-4-(2,4-dichloro-3-methylphenoxy)-1′-[4-(methylsulfonyl)benzoyl]-1,4′-bipiperidine for CHO-K1 Cell Membranes In Vitro
Membranes, prepared from CHO-K1 cells stably expressing recombinant human CCR3, suspended in assay buffer (50 mM Tris-Base, pH 7.4; containing sodium chloride (100 mM) and magnesium chloride (2 mM)) were incubated in the presence of 2 nM [^3H]-4-(2,4-dichloro-3-methylphenoxy)-1′-[4-(methylsulfonyl)benzoyl]-1,4′-bipiperidine, along with vehicle (1% (v/v) DMSO), 4-(4-chloro-3-methylphenoxy)-1′-[2-(methylsulfonyl)benzoyl]-1,4′-bipiperidine (to define non-specific binding) or test compound for 2 h at 37° C. in round bottomed 96-well plates. The plates were then filtered onto GF/B filter plates, pre-soaked for 1 hour in plate-coating solution (0.3% (w/v) polyethylenimine, 0.2% (w/v) BSA in de-ionised water), using a 96-well plate Tomtec cell harvester. Four washes (250 μL) with wash buffer (50 mM Tris-Base, pH 7.4 containing sodium chloride (500 mM) and magnesium chloride (2 mM)) were performed at 4° C. to remove unbound radioactivity. […] The plates were sealed (TopSeal A) and filter-bound radioactivity was measured with a scintillation counter (TopCount, Packard BioScience) using a 1 minute counting protocol. […]

Row | Ki (human H1 receptor) [nM] | Molecule | further results
1 | 631 | Cc1cc(Cl)ccc1OC1CCN(CC2CCN(C3(C(=O)O)CCCCC3)CC2)CC1 [Example 13A, 1-(4-{[4-(4-Chloro-2-methylphenoxy)piperidin-1-yl]methyl}piperidin-1-yl)cyclohexanecarboxylic acid dihydrochloride] | 
2 | 316 | Cc1c(OC2CCN(CC3CCN(C4(C(=O)O)CCCC4)CC3)CC2)ccc(Cl)c1Cl [Example 8A, 1-(4-{[4-(3,4-dichloro-2-methylphenoxy)piperidin-1-yl]methyl}piperidin-1-yl)cyclopentanecarboxylic acid] | 

The remaining lines, values behind:

Row | Molecule | Ki (human H1 receptor) [nM] | further results
3 | (2S)-3-cyclohexyl-2-(4-{[4-(3,4-dichloro-2-methylphenoxy)piperidin-1-yl]methyl}piperidin-1-yl)propanoic acid [Example 1A] |  | H1 pKi (human H1 receptor): 7.2
4 | O=C(O)[C@H](CC1CCCC1)N1CCC(CN2CCC(Oc3ccc(Cl)c(Cl)c3)CC2)CC1 [Example 4A, (2S)-3-Cyclopentyl-2-(4-{[4-(3,4-dichlorophenoxy)piperidin-1-yl]methyl}piperidin-1-yl)propanoic acid] | 126 | 
5 | O=C(O)C1(N2CCC(CN3CCC(Oc4ccc(Cl)c(Cl)c4)CC3)CC2)CCCCC1 [Example 6A, 1-(4-{[4-(3,4-dichlorophenoxy)piperidin-1-yl]methyl}piperidin-1-yl)cyclohexanecarboxylic acid] | 501 | 
6 | Cc1cc(Cl)ccc1OC1CCN(CC2CCN([C@@](C)(CC(C)C)C(=O)O)CC2)CC1 [Example 16A, (2S)-2-{4-[4-(4-Chloro-2-methyl-phenoxy)-piperidin-1-ylmethyl]-piperidin-1-yl}-2,4-dimethyl-pentanoic acid] |  | Ki (recombinant human CCR3): 0.631 nM
7 | Cc1c(OC2CCN(CC3CCN([C@@H](CC4CCCCC4)C(=O)O)CC3)CC2)ccc(Cl)c1Cl [Example 2A, (2S)-3-Cyclohexyl-2-(4-{[4-(3,4-dichloro-2-methylphenoxy)piperidin-1-yl]methyl}piperidin-1-yl)propanoic acid] | 79.4 | 
8 | Cc1c(OC2CCN(CC3CCN([C@@H](CC4CC4)C(=O)O)CC3)CC2)ccc(Cl)c1Cl [Example 3A, (2S)-3-Cyclopropyl-2-(4-{[4-(3,4-dichloro-2-methylphenoxy)piperidin-1-yl]methyl}piperidin-1-yl)propanoic acid] | 200 | 
